Measurements taken from patent US11543404B2, “Nerve cell device and method for evaluating neural activity” (Stem Cell & Device Laboratory, Inc., priority 2017, dated 2023).

Assays:
[1] = system: 253G1 hiPS cell-derived neurons; experiment: MEA measurement of drug response (number of spikes) of 253G1 hiPS cell-derived neurons; assay type: cell-based, human; conditions: 4-AP final concentration 100 μM
Protocol: iPS cell-derived neurons (253G1 hiPS cell-derived neuron or XCL-1 NEURONS (XCell Science, catalog number XN-001-1V)) were seeded on the oriented PLGA fiber sheet as a cell scaffold at 13×10^5 cells/cm^2. 253G1 hiPS cell-derived neurons were cultured in N2B27 medium with or without 20% ACM, and the XCL-1 NEURONS are cultured in BrainPhys (registered trademark) Neuronal Medium (05792, STEMCELL TECHNOLOGIES) with or without 20% ACM in an incubator at 5% CO2 and 37° C. for 4 or 6 weeks. The fiber sheet was placed on an MEA probe (MED64 system, Alpha MED Scientific Inc.), and made the cells contact with the electrodes of MEA probe to measure neural activity (spikes). As a control, neurons were similarly seeded directly on a probe (electrodes) based on a conventional method, and cultured in an incubator at 5% CO2 and 37° C. for 4 or 6 weeks. The obtained results were compared with those given by a conventional method (direct seeding to a probe). A larger number of spikes were detected in 253G1 hiPS cell-derived neurons on the fiber sheet at 4-week culture (FIG. 7a). […] In the measurement system, 4-aminopyridine (4-AP), known to have a function of inhibiting various potassium channels in neurons and maintaining neuronal action potential, was added to the neurons cultured for 4 weeks at a final concentration of 100 μM, and then the spikes were measured. As a result, the number of spikes was increased both in the control group and in the fiber sheet group by the addition of 4-aminopyridine, and appropriate drug response was also confirmed (FIG. 7a).

[2] = system: iPS cell-derived neurons XCL-1 NEURONS; experiment: MEA measurement of drug response (spikes, bursts, synchronous bursts) of XCL-1 NEURONS on oriented PLGA fiber sheet; assay type: cell-based, human; conditions: 4-AP final concentration 100 μM
Protocol: iPS cell-derived neurons (253G1 hiPS cell-derived neuron or XCL-1 NEURONS (XCell Science, catalog number XN-001-1V)) were seeded on the oriented PLGA fiber sheet as a cell scaffold at 13×10^5 cells/cm^2. 253G1 hiPS cell-derived neurons were cultured in N2B27 medium with or without 20% ACM, and the XCL-1 NEURONS are cultured in BrainPhys (registered trademark) Neuronal Medium (05792, STEMCELL TECHNOLOGIES) with or without 20% ACM in an incubator at 5% CO2 and 37° C. for 4 or 6 weeks. The fiber sheet was placed on an MEA probe (MED64 system, Alpha MED Scientific Inc.), and made the cells contact with the electrodes of MEA probe to measure neural activity (spikes). As a control, neurons were similarly seeded directly on a probe (electrodes) based on a conventional method, and cultured in an incubator at 5% CO2 and 37° C. for 4 or 6 weeks. The obtained results were compared with those given by a conventional method (direct seeding to a probe). A larger number of spikes were detected in 253G1 hiPS cell-derived neurons on the fiber sheet at 4-week culture (FIG. 7a). […] In the measurement system, 4-aminopyridine (4-AP), known to have a function of inhibiting various potassium channels in neurons and maintaining neuronal action potential, was added to the neurons cultured for 4 weeks at a final concentration of 100 μM, and then the spikes were measured. As a result, the number of spikes was increased both in the control group and in the fiber sheet group by the addition of 4-aminopyridine, and appropriate drug response was also confirmed (FIG. 7a). […] The cells were cultured in BrainPhys (registered trademark) Neuronal Medium (05792, STEMCELL TECHNOLOGIES) containing 20% ACM in an incubator at 5% CO2 and 37° C. for 2, 4, and 6 weeks. The obtained cell sheet (nerve cell device) was placed on an MEA probe (MED64 system, Alpha MED Scientific Inc.) and made the cells contact with the electrodes of MEA probe to measure neural activity (spikes and bursts). In the measurement system, 4-aminopyridine (4-AP), known to maintain a neural action potential was added at a final concentration of 100 μM to examine the drug response of neurons. MED 64 Burstscope (Alpha MED Scientific Inc.) was used for analyzing neural activity. About the cell sheet obtained by culturing for 4 weeks, the result of analyzing the number of spikes is shown in FIG. 8a, and the result of analyzing the number of synchronous bursts is shown in FIG. 8b. […] Furthermore, the result of analyzing neural activity by raster plots for a cell sheet obtained by culturing for 6 weeks is shown in FIG. 8c.

[3] = seeded at 24×10^5 cells/cm^2 on oriented PLGA fiber sheet, 20% ACM, cultured 4 weeks

Nc1ccncc1 [4-aminopyridine]
increase in the number of spikes ([1]; control group cultured directly on the MEA probe, 4 weeks): 156%
increase in the number of spikes ([1]; fiber sheet group cultured in medium with 20% ACM, 4 weeks): 194%
increase in the number of spikes ([1]; neurons on oriented PLGA fiber sheet (fiber sheet group), cultured 4 weeks): 167%
increase in the number of spikes [2, 3]: 499%
increase in the number of synchronous bursts [2, 3]: 375%
number of spikes and synchronous bursts (raster plots) ([2]; seeded at 24×10^5 cells/cm^2 on oriented PLGA fiber sheet, 20% ACM, cultured 6 weeks): remarkable increase
increase in the number of bursts ([2]; seeded on fiber sheet at 12×10^5 cells/cm^2, cultured 6 weeks in medium with ACM): 2.6 fold
